Data as given in US20100267561A1, “HERBICIDAL PYRIDAZINONE DERIVATIVES” (priority 2007, published 2010).

What was measured:
Experiment in all cases: Test B pre-/postemergence plant response
Assay type in all cases: in vivo
[1] = tested on: Italian ryegrass (Lolium multiflorum); details: Preemergence
In short: (§1)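 Seeds were sown and sprayed preemergence, while plants at 2 to 18 cm (1- to 4-leaf stage) got postemergence sprays. Compounds were formulated in a non-phytotoxic solvent mixture with surfactant. After 13 to 15 days in a greenhouse, injury was rated visually against untreated controls, 0 (no effect) to 100 (complete control).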

[2] = tested on: Russian thistle (Salsola iberica); details: Preemergence
In short: as §1

[3] = tested on: blackgrass (Alopecurus myosuroides); details: Preemergence; for Blackgrass plant response rating: 8 g ai/ha
In short: as §1

[4] = tested on: catchweed bedstraw (Galium aparine); details: Preemergence
In short: as §1

[5] = tested on: common ragweed (Ambrosia elation); details: Preemergence
In short: as §1

[6] = tested on: eastern black (E.B.) nightshade (Solanum ptycanthum); details: Preemergence
In short: as §1

[7] = tested on: giant foxtail (Setaria faberii); details: Preemergence
In short: as §1

[8] = tested on: goosegrass (Eleusine indica); details: Preemergence
In short: as §1

[9] = tested on: johnsongrass (Sorghum halepense); details: Preemergence
In short: as §1

[10] = tested on: lambsquarters (Chenopodium album); details: Preemergence
In short: as §1

[11] = tested on: pigweed (Amaranthus retroflexus); details: Preemergence
In short: as §1

soybean (Glycine max) = details: Preemergence
In short: as §1

[12] = tested on: woolly cupgrass (Eriochloa villosa); details: Preemergence
In short: as §1

[13] = 31 g ai/ha, scale 0 to 100 (0 no effect, 100 complete control)
[14] = 16 g ai/ha, scale 0 to 100 (0 no effect, 100 complete control)
[15] = 31 g ai/ha, 0 to 100 scale, 0 no effect, 100 complete control
[16] = 62 g ai/ha, 0 to 100 scale, 0 no effect, 100 complete control

Cc1cc(-c2ccc(Cl)cc2)nn1-c1c(OS(=O)(=O)c2ccccc2[N+](=O)[O-])cnn(C)c1=O [Compound 51]
98: Plant response rating, Blackgrass [3, 14] | Plant response rating, Blackgrass [3, 15]
75: Plant response rating, Goosegrass [8, 15]
50: Blackgrass plant response rating ([3]; scale 0 to 100) | Johnsongrass plant response rating ([9]; 16 g ai/ha, scale 0 to 100)
100: Plant response rating, Ryegrass, Italian [1, 13] | Plant response rating, Ryegrass, Italian ([1]; 62 g ai/ha, scale 0 to 100) | Ryegrass, Italian plant response rating ([1]; 8 g ai/ha, scale 0 to 100) | Ryegrass, Italian plant response rating ([1]; 16 g ai/ha, scale 0 to 100) | Plant response rating, Blackgrass ([3]; 62 g ai/ha, scale 0 to 100) | Plant response rating, Foxtail, Giant [7, 15] | Plant response rating, Foxtail, Giant ([7]; 62 g ai/ha, scale 0 to 100) | Foxtail, Giant plant response rating ([7]; 16 g ai/ha, scale 0 to 100) | Plant response rating, Cupgrass, Woolly ([12]; 62 g ai/ha, scale 0 to 100)
0: Plant response rating, Russian Thistle [2, 13] | Plant response rating, Russian Thistle ([2]; 62 g ai/ha, scale 0 to 100) | Russian Thistle plant response rating ([2]; 8 g ai/ha, scale 0 to 100) | Russian Thistle plant response rating ([2]; 16 g ai/ha, scale 0 to 100) | Plant response rating, Galium [4, 15] | Plant response rating, Galium ([4]; 62 g ai/ha, scale 0 to 100) | Galium plant response rating ([4]; 8 g ai/ha, scale 0 to 100) | Galium plant response rating ([4]; 16 g ai/ha, scale 0 to 100) | Plant response rating, Ragweed [5, 13] | Plant response rating, Ragweed ([5]; 62 g ai/ha, scale 0 to 100) | Ragweed plant response rating ([5]; 8 g ai/ha, scale 0 to 100) | Ragweed plant response rating ([5]; 16 g ai/ha, scale 0 to 100) | Plant response rating, Nightshade, E. B. [6, 13] | Plant response rating, Nightshade, E. B. ([6]; 62 g ai/ha, scale 0 to 100) | Goosegrass plant response rating ([8]; 8 g ai/ha, scale 0 to 100) | Plant response rating, Lambsquarters [10, 15] | Plant response rating, Lambsquarters ([10]; 62 g ai/ha, scale 0 to 100) | Plant response rating, Pigweed [11, 13] | Plant response rating, Pigweed ([11]; 62 g ai/ha, scale 0 to 100) | Pigweed plant response rating ([11]; 8 g ai/ha, scale 0 to 100) | Pigweed plant response rating ([11]; 16 g ai/ha, scale 0 to 100) | Plant response rating, Soybean (soybean (Glycine max); [13]) | Plant response rating, Soybean (soybean (Glycine max); 62 g ai/ha, scale 0 to 100) | Soybean plant response rating (soybean (Glycine max); 8 g ai/ha, scale 0 to 100) | Soybean plant response rating (soybean (Glycine max); 16 g ai/ha, scale 0 to 100) | Cupgrass, Woolly plant response rating ([12]; 8 g ai/ha, scale 0 to 100)
90: Plant response rating, Goosegrass ([8]; 62 g ai/ha, scale 0 to 100) | Plant response rating, Cupgrass, Woolly [12, 15]
80: Foxtail, Giant plant response rating ([7]; 8 g ai/ha, scale 0 to 100) | Plant response rating, Johnsongrass ([9]; 62 g ai/ha, scale 0 to 100) | Cupgrass, Woolly plant response rating ([12]; 16 g ai/ha, scale 0 to 100)
70: Plant response rating, Johnsongrass [9, 15]
60: Goosegrass plant response rating ([8]; 16 g ai/ha, scale 0 to 100)

C#CCOC(=O)Oc1cnn(C)c(=O)c1-n1nc(-c2ccc(Cl)cc2)cc1C [Compound 58]
70: Goosegrass plant response rating ([8]; 8 g ai/ha, scale 0 to 100)
60: Plant response rating, Russian Thistle [2, 16] | Plant response rating, Johnsongrass [9, 16]
55: Foxtail, Giant plant response rating ([7]; 8 g ai/ha, scale 0 to 100)
0: Ryegrass, Italian plant response rating ([1]; 8 g ai/ha, scale 0 to 100) | Russian Thistle plant response rating ([2]; 8 g ai/ha, scale 0 to 100) | Russian Thistle plant response rating ([2]; 16 g ai/ha, scale 0 to 100) | Plant response rating, Galium [4, 13] | Plant response rating, Galium [4, 16] | Galium plant response rating ([4]; 8 g ai/ha, scale 0 to 100) | Galium plant response rating ([4]; 16 g ai/ha, scale 0 to 100) | Plant response rating, Ragweed [5, 13] | Plant response rating, Ragweed [5, 16] | Ragweed plant response rating ([5]; 8 g ai/ha, scale 0 to 100) | Ragweed plant response rating ([5]; 16 g ai/ha, scale 0 to 100) | Plant response rating, Nightshade, E. B. [6, 13] | Plant response rating, Nightshade, E. B. [6, 16] | Nightshade, E. B. plant response rating ([6]; 8 g ai/ha, scale 0 to 100) | Nightshade, E. B. plant response rating ([6]; 16 g ai/ha, scale 0 to 100) | Johnsongrass plant response rating ([9]; 8 g ai/ha, scale 0 to 100) | Johnsongrass plant response rating ([9]; 16 g ai/ha, scale 0 to 100) | Lambsquarters plant response rating ([10]; 8 g ai/ha, scale 0 to 100) | Lambsquarters plant response rating ([10]; 16 g ai/ha, scale 0 to 100) | Plant response rating, Pigweed [11, 13] | Plant response rating, Pigweed [11, 16] | Pigweed plant response rating ([11]; 8 g ai/ha, scale 0 to 100) | Pigweed plant response rating ([11]; 16 g ai/ha, scale 0 to 100) | Plant response rating, Soybean (soybean (Glycine max); [13]) | Plant response rating, Soybean (soybean (Glycine max); [16]) | Soybean plant response rating (soybean (Glycine max); 8 g ai/ha, scale 0 to 100) | Soybean plant response rating (soybean (Glycine max); 16 g ai/ha, scale 0 to 100)
100: Plant response rating, Ryegrass, Italian [1, 13] | Plant response rating, Ryegrass, Italian [1, 16] | Ryegrass, Italian plant response rating ([1]; 16 g ai/ha, scale 0 to 100) | Plant response rating, Blackgrass [3, 14] | Plant response rating, Blackgrass [3, 13] | Plant response rating, Blackgrass [3, 16] | Plant response rating, Foxtail, Giant [7, 13] | Plant response rating, Foxtail, Giant [7, 16] | Plant response rating, Goosegrass [8, 16] | Plant response rating, Lambsquarters [10, 16] | Plant response rating, Cupgrass, Woolly [12, 13] | Plant response rating, Cupgrass, Woolly [12, 16]
85: Goosegrass plant response rating ([8]; 16 g ai/ha, scale 0 to 100)
75: Cupgrass, Woolly plant response rating ([12]; 8 g ai/ha, scale 0 to 100)
20: Plant response rating, Russian Thistle [2, 13]
95: Foxtail, Giant plant response rating ([7]; 16 g ai/ha, scale 0 to 100) | Plant response rating, Goosegrass [8, 13] | Plant response rating, Lambsquarters [10, 13]
80: Blackgrass plant response rating ([3]; scale 0 to 100) | Cupgrass, Woolly plant response rating ([12]; 16 g ai/ha, scale 0 to 100)
40: Plant response rating, Johnsongrass [9, 13]
